# Measurements from US8999998B2, “Pyrazolopyrimidine JAK inhibitor compounds and methods” (Genentech, Inc., priority 2009, dated 2015).
# Key:
# Assay type in all cases: biochemical
# JAK3 kinase domain = JAK3 kinase domain (Homo sapiens (Human), UniProt P52333); assay: JAK3 inhibition assay (Caliper LabChip, isolated kinase domain); settings: 5 uM ATP, 5 nM JAK3; read-out: JAK3 enzymatic activity (Ki)
# Excerpt: (§1) Previous studies have shown that the isolated kinase domains of human JAK1, JAK2, JAK3 or TYK2 phosphorylate peptide substrates in in vitro kinase assays (Saltzman et al., Biochem. Biophys. Res. Commun. 246:627-633 (2004)). The catalytically active kinase domain of human JAK1, JAK2, JAK3 or TYK2 was purified from extracts of SF9 insect cells infected with a recombinant baculovirus expression vector encoding the human JAK1, JAK2, JAK3 or TYK2 kinase domains (JAK1 amino acid residues N852-D1154 according to the numbering of GenBank sequence accession number P23458, JAK2 amino acid residues D812-G1132 according to the numbering of GenBank sequence accession number NP_004963.1; JAK3 amino acid residues S783-S1124 according to the numbering of GenBank sequence accession number P52333, and TYK2 amino acid residues N873-C1187 according to the numbering of GenBank sequence accession number P29597). The activity of the JAK1, JAK2, JAK3 or TYK2 kinase domains can be measured by a number of direct and indirect methods, including quantification of phosphorylation of peptide substrates derived from the human JAK3 protein (Saltzman et al., Biochem. Biophys. Res. Commun. 246:627-633 (2004)). The activity of the JAK1, JAK2, JAK3 or TYK2 kinase domains was measured in vitro by monitoring phosphorylation of JAK3 derived peptides using the Caliper LabChip technology (see Examples).
# (§2) The activity of the isolated JAK3 kinase domain was measured by monitoring phosphorylation of a peptide derived from JAK3 ([…] fluorescently labeled on the N-terminus with 5-carboxyfluorescein using the Caliper LabChip technology (Caliper Life Sciences, Hopkinton, Mass.). […] Reactions were incubated at 22° C. in 384-well polypropylene microtiter plates for 30 minutes and then stopped by addition of 25 uL of an EDTA containing solution (100 mM Hepes pH 7.2, 0.015% Brij-35, 150 mM EDTA), resulting in a final EDTA concentration of 50 mM. After termination of the kinase reaction, the proportion of phosphorylated product was determined as a fraction of total peptide substrate using the Caliper LabChip 3000 according to the manufacturer's specifications. Ki values were then determined using the Morrison tight binding model. Morrison, J. F., Biochim. Biophys. Acta. 185:269-296 (1969); William, J. W. and Morrison, J. F., Meth. Enzymol., 63:437-467 (1979).
# JAK1 kinase domain = JAK1 kinase domain (Homo sapiens (Human), UniProt P23458); assay: JAK1 inhibition assay (Caliper LabChip, isolated kinase domain); settings: 25 uM ATP, 1.5 nM JAK1; read-out: JAK1 enzymatic activity (Ki)
# Sequence of JAK1 kinase domain (P23458 852-1154): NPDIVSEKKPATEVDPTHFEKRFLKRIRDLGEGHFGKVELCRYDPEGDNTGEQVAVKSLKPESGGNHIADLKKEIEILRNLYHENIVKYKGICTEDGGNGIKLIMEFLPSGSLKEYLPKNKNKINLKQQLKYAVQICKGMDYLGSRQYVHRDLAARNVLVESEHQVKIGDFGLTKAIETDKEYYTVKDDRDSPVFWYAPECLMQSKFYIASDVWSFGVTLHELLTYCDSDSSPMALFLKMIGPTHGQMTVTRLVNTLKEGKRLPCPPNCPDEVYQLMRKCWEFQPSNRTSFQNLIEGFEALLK
# Excerpt: as §1, with “The” for “Previous studies have shown that the isolated kinase domains of human JAK1, JAK2, JAK3 or TYK2 phosphorylate peptide substrates in in vitro kinase assays (Saltzman et al., Biochem. Biophys. Res. Commun. 246:627-633 (2004)). The”
# as §2, with “isolated JAK1, JAK2 or TYK2” for “isolated JAK3”
# JAK2 kinase domain = JAK2 kinase domain (Homo sapiens (Human), UniProt O60674); assay: JAK2 inhibition assay (Caliper LabChip, isolated kinase domain); settings: 25 uM ATP, 0.2 nM JAK2; read-out: JAK2 enzymatic activity (Ki)
# Sequence of JAK2 kinase domain (O60674 812-1132): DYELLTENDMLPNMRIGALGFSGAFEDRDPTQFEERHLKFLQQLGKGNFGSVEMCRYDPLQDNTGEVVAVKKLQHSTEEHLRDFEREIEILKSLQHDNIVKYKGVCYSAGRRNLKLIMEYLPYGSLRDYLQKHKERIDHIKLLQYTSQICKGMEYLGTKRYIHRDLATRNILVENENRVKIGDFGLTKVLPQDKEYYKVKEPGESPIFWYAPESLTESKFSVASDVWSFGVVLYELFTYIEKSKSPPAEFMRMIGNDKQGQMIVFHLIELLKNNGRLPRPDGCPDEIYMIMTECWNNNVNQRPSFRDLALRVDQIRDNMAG
# Excerpt: as §1, with “The” for “Previous studies have shown that the isolated kinase domains of human JAK1, JAK2, JAK3 or TYK2 phosphorylate peptide substrates in in vitro kinase assays (Saltzman et al., Biochem. Biophys. Res. Commun. 246:627-633 (2004)). The”
# as §2, with “isolated JAK1, JAK2 or TYK2” for “isolated JAK3”
# TYK2 kinase domain = TYK2 kinase domain (Homo sapiens (Human), UniProt P29597); assay: TYK2 inhibition assay (Caliper LabChip, isolated kinase domain); settings: 25 uM ATP, 1 nM TYK2; read-out: TYK2 enzymatic activity (Ki)
# Sequence of TYK2 kinase domain (P29597 873-1187): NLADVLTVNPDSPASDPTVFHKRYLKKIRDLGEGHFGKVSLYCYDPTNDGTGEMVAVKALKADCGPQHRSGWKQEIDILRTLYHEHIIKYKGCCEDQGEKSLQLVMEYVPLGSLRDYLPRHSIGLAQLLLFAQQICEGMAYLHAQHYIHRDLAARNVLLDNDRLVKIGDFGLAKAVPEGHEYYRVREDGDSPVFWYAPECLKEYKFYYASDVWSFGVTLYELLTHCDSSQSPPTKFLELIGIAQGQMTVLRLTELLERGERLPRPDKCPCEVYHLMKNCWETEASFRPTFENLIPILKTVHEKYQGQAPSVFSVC
# Excerpt: as §1, with “The” for “Previous studies have shown that the isolated kinase domains of human JAK1, JAK2, JAK3 or TYK2 phosphorylate peptide substrates in in vitro kinase assays (Saltzman et al., Biochem. Biophys. Res. Commun. 246:627-633 (2004)). The”
# as §2, with “isolated JAK1, JAK2 or TYK2” for “isolated JAK3”
# Sequence of JAK3 kinase domain (P52333 783-1124): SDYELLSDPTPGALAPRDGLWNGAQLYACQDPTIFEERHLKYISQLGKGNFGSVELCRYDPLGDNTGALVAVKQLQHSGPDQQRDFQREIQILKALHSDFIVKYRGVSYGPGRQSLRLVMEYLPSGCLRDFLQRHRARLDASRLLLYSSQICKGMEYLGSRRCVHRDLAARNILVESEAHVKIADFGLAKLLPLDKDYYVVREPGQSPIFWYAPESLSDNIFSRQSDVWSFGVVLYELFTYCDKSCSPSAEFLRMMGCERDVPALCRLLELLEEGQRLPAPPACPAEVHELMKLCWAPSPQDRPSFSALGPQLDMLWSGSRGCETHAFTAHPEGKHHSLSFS
SMILES,Ki (JAK3 kinase domain) [nM],Ki (JAK1 kinase domain) [nM],Ki (JAK2 kinase domain) [nM],Ki (TYK2 kinase domain) [nM]
"Cc1cc(NC(=O)c2cnn3cccnc23)n(-c2cc(Cl)ccc2C)n1 [Example 6, N-(1-(5-chloro-2-methylphenyl)-3-methyl-1H-pyrazol-5-yl)pyrazolo[1,5-a]pyrimidine-3-carboxamide]",152,46.2,4.9,99.6
"COc1ncc(C#N)cc1-c1n[nH]cc1NC(=O)c1cnn2cccnc12 [Example 158, N-(3-(5-Cyano-2-methoxypyridin-3-yl)-1H-pyrazol-4-yl)pyrazolo[1,5-a]pyrimidine-3-carboxamide]",53,4.8,1.5,6.6
"O=C(Nc1c[nH]nc1-n1cc(Cl)ccc1=O)c1cnn2cccnc12 [Example 194, N-(3-(5-chloro-2-oxopyridin-1(2H)-yl)-1H-pyrazol-4-yl)pyrazolo[1,5-a]pyrimidine-3-carboxamide]",4100,775,110,980
"N#CC1CCN(c2n[nH]cc2NC(=O)c2cnn3cccnc23)CC1 [Example 395, N-(3-(4-cyanopiperidin-1-yl)-1H-pyrazol-4-yl)pyrazolo[1,5-a]pyrimidine-3-carboxamide]",390,176,31.3,230
"O=C(Nc1ccncc1-c1cccc(F)c1)c1cnn2cccnc12 [Example 63, N-(3-(3-fluorophenyl)pyridin-4-yl)pyrazolo[1,5-a]pyrimidine-3-carboxamide]",200,153,23,140
"CC1CCCCN1c1nn(CC(C)(C)O)cc1NC(=O)c1cnn2cccnc12 (centres unmarked) [Example 379, N-(1-(2-hydroxy-2-methylpropyl)-3-(2-methylpiperidin-1-yl)-1H-pyrazol-4-yl)pyrazolo[1,5-a]pyrimidine-3-carboxamide]",240,85.9,26.3,410
"O=C(Nc1ccnn1-c1ccc(Cl)cc1)c1cnn2cccnc12 [Example 54, N-(1-(4-chlorophenyl)-1H-pyrazol-5-yl)pyrazolo[1,5-a]pyrimidine-3-carboxamide]",,1200,159,850
"Cc1cc(NC(=O)c2cnn3cccnc23)n(-c2ccccc2Br)n1 [Example 44, N-(1-(2-bromophenyl)-3-methyl-1H-pyrazol-5-yl)pyrazolo[1,5-a]pyrimidine-3-carboxamide]",140,131,18,480

# These reach a lower Ki (JAK1 kinase domain). Values come first.
Ki (JAK3 kinase domain) [nM],Ki (JAK1 kinase domain) [nM],Ki (JAK2 kinase domain) [nM],Ki (TYK2 kinase domain) [nM],SMILES
5.5,2.1,0.5,2.3,"COc1ccc(Cl)cc1-c1c(NC(=O)c2c(N)nn3cccnc23)cnn1CC(N)=O [Example 217, 2-amino-N-(1-(2-amino-2-oxoethyl)-5-(5-chloro-2-methoxyphenyl)-1H-pyrazol-4-yl)pyrazolo[1,5-a]pyrimidine-3-carboxamide]"
210,3.8,12.5,76,"CCOc1ccc(Cl)cc1-c1nn([C@H]2CCCC[C@@H]2O)cc1NC(=O)c1cnn2cccnc12 (stereo in doubt) [Example 414, N-(3-(5-chloro-2-ethoxyphenyl)-1-((1S,2S)-2-hydroxycyclohexyl)-1H-pyrazol-4-yl)pyrazolo[1,5-a]pyrimidine-3-carboxamide And N-(3-(5-chloro-2-ethoxyphenyl)-1-((1R,2R)-2-hydroxycyclohexyl)-1H-pyrazol-4-yl)pyrazolo[1,5-a]pyrimidine-3-carboxamide]"
18,4.4,1,5.6,"COc1ccc(Cl)cc1-c1c(NC(=O)c2cnn3cccnc23)cnn1CCO [Example 109, N-(5-(5-chloro-2-methoxyphenyl)-1-(2-hydroxyethyl)-1H-pyrazol-4-yl)pyrazolo[1,5-a]pyrimidine-3-carboxamide]"
170,0.5,2.5,10,"COc1ccc(Cl)cc1-c1nn(CC(=O)N2CC=CCC2)cc1NC(=O)c1cnn2cccnc12 [Example 300, N-(3-(5-chloro-2-methoxyphenyl)-1-(2-(5,6-dihydropyridin-1(2H)-yl)-2-oxoethyl)-1H-pyrazol-4-yl)pyrazolo[1,5-a]pyrimidine-3-carboxamide]"
210,4.2,2.6,65,COc1ccc(C#N)cc1-c1nn(Cc2ncnn2C)cc1NC(=O)c1cnn2cccnc12 [Example 155]
690,1,4.2,46,"COc1ccc(C#N)cc1-c1nn(CC2(O)CCCC2)cc1NC(=O)c1cnn2cccnc12 [Example 359, N-(3-(5-cyano-2-methoxyphenyl)-1-((1-hydroxycyclopentyl)methyl)-1H-pyrazol-4-yl)pyrazolo[1,5-a]pyrimidine-3-carboxamide]"
780,1.6,5.8,14,"COc1ncc(Cl)cc1-c1nn(CC(=O)N(C)C)cc1NC(=O)c1cnn2cccnc12 [Example 499, N-(3-(5-chloro-2-methoxypyridin-3-yl)-1-(2-(dimethylamino)-2-oxoethyl)-1H-pyrazol-4-yl)pyrazolo[1,5-a]pyrimidine-3-carboxamide]"
270,0.7,3.1,9.1,"COc1ccc(Cl)cc1-c1nn(CC(=O)N2CCCC2C)cc1NC(=O)c1cnn2cccnc12 (centres unmarked) [Example 283, N-(3-(5-chloro-2-methoxyphenyl)-1-(2-(2-methylpyrrolidin-1-yl)-2-oxoethyl)-1H-pyrazol-4-yl)pyrazolo[1,5-a]pyrimidine-3-carboxamide]"
13,0.7,0.4,2.1,"COc1ccc(Cl)cc1-c1nc(C)sc1NC(=O)c1cnn2cccnc12 [Example 170, N-(4-(5-chloro-2-methoxyphenyl)-2-methylthiazol-5-yl)pyrazolo[1,5-a]pyrimidine-3-carboxamide]"
710,2.3,6.2,47,"COc1ccc(F)cc1-c1nn(CC2(O)CCOCC2)cc1NC(=O)c1cnn2cccnc12 [Example 364, N-(3-(5-fluoro-2-methoxyphenyl)-1-((4-hydroxytetrahydro-2H-pyran-4-yl)methyl)-1H-pyrazol-4-yl)pyrazolo[1,5-a]pyrimidine-3-carboxamide]"
